From patent publication US9227967B2, “Inhibitor compounds of semicarbazide-sensitive amine oxidases” (Proximagen Limited, priority 2010, dated 2016) come the findings set out here.

Counter-ions that a name gives are not always drawn.

The target in the test is T1, human SSAO (Homo sapiens, UniProt Q16853).
T1 construct: made in house
T1 sequence (Q16853 29-763 limits assumed): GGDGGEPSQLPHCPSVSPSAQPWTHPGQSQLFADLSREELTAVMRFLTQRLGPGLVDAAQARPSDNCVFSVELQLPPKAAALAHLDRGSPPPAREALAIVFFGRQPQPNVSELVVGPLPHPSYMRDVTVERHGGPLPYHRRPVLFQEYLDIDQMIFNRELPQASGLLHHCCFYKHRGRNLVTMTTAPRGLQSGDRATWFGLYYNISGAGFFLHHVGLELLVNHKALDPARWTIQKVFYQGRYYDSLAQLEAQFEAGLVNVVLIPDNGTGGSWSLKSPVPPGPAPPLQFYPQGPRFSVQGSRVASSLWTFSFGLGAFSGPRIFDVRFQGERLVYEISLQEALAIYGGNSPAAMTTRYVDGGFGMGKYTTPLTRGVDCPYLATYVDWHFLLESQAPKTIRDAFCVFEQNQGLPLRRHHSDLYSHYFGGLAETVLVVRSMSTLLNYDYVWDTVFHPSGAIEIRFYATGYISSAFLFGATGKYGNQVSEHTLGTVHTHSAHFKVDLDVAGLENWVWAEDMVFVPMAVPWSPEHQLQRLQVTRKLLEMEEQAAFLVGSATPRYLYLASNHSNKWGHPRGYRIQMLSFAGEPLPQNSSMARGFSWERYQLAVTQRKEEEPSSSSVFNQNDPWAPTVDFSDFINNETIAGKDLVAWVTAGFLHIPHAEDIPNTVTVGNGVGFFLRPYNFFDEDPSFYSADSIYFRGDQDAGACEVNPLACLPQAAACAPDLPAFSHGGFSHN
Put plainly: SSAO enzyme inhibition assay (benzylamine substrate; HRP-coupled hydrogen peroxide detection or 14C-benzaldehyde detection). As to conditions: purified recombinantly expressed human SSAO, benzylamine as substrate, r.t.; read-out: SSAO inhibitory activity IC50. Type of test: biochemical. The protocol: All primary assays were performed at r.t. with purified recombinantly expressed human SSAO. Enzyme was prepared essentially as described in Öhman et al. (Protein Expression and Purification 46 (2006) 321-331). In addition, secondary- and selectivity assays were performed using SSAO prepared from various tissues or purified rat recombinant SSAO. The enzyme activity was assayed with benzylamine as substrate by measuring either benzaldehyde production, using ^14C-labeled substrate, or by utilizing the production of hydrogen peroxide in a horseradish peroxidise (HRP) coupled reaction. Briefly, test compounds were dissolved in dimethyl sulfoxide (DMSO) to a concentration of 10 mM. Dose-response measurements were assayed by either creating 1:10 serial dilutions in DMSO to produce a 7 point curve or by making 1:3 serial dilutions in DMSO to produce 11 point curves. The top concentrations were adjusted depending on the potency of the compounds and subsequent dilution in reaction buffer yielded a final DMSO concentration ≦2%.
In a horseradish peroxidise (HRP) coupled reaction, hydrogen peroxide oxidation of 10-acetyl-3,7-dihydroxyphenoxazine produced resorufin, which is a highly fluorescent compound (Zhout and Panchuk-Voloshina. Analytical Biochemistry 253 (1997) 169-174; Amplex® Red Hydrogen Peroxide/peroxidise Assay kit, Invitrogen A22188). Enzyme and compounds in 50 mM sodium phosphate, pH 7.4 were set to pre-incubate in flat-bottomed microtiter plates for approximately 15 minutes before initiating the reaction by addition of a mixture of HRP, benzylamine and Amplex reagent. Benzylamine concentration was fixed at a concentration corresponding to the Michaelis constant, determined using standard procedures. Fluorescence intensity was then measured at several time points during 1-2 hours, exciting at 544 nm n and reading the emission at 590 nm. For the human SSAO assay final concentrations of the reagents in the assay wells were: SSAO enzyme 1 μg/ml, benzylamine 100 μM, Amplex reagent 20 μM, HRP 0.1 U/mL and varying concentrations of test compound. The inhibition was measured as % decrease of the signal compared to a control without inhibitor (only diluted DMSO). The background signal from a sample containing no SSAO enzyme was subtracted from all data points. Data was fitted to a four parameter logistic model and IC50 values were calculated using the GraphPad Prism 4 or XLfit 4 programs.
SSAO activity was assayed using 14C-labeled benzylamine and analysed by measuring radioactive benzaldehyde. In a white 96-well optiplate (Packard), 20 μL of diluted test compound was pre-incubated at r.t. with 20 μL SSAO enzyme for approximately 15 minutes with continuous agitation. All dilutions were made with PBS. The reaction was initiated by adding 20 μL of the benzylamine substrate solution containing [7-14C] Benzylamine hydrochloride (CFA589, GE Healthcare). The plate was incubated for 1 hour as above after which the reaction was stopped by acidification (10 μL 1 M HCl). Then 90 μL Micro Scint-E solution (Perkin-Elmer) was added to each well and the plate was continuously mixed for 15 minutes. Phase separation occurred instantly and activity was read in a Topcount scintillation counter (Perkin-Elmer). In the final reaction well, human recombinant SSAO concentration was 10 μg/ml. In order to optimize sensitivity, the substrate concentration was decreased as compared to the HRP coupled assay in order to get a higher fraction of radioactive product. In the human SSAO assay, benzylamine concentration was 40 μM (0.2 μCi/mL). Data was analysed as above.

In the case of `CC(C)(C)OC(=O)NC1CCC(c2cn(-c3ccc(Cl)cc3)c3cnccc23)CC1` (stereo not drawn) [Compound 11, tert-Butyl N-{4-[1-(4-chlorophenyl)-1H-pyrrolo[2,3-c]pyridin-3-yl]cyclohexyl}-carbamate], the IC50 – broadly, the point on the concentration scale where inhibition reaches its midpoint – was 100 to 500 nM.
The figure for `OCCNCc1cn(-c2ccc(Cl)cc2)c2cnccc12` [Compound 31, 2-({[1-(4-Chlorophenyl)-1H-pyrrolo[2,3-c]pyridin-3-yl]methyl}amino)ethan-1-ol] is 500 to 2500 nM; for `Clc1ccc(-c2cn(C3CCNCC3)c3ccncc23)cc1` [Compound 5, Bis(2,2,2-trifluoroacetic acid); 4-[3-(4-chlorophenyl)-1H-pyrrolo[3,2-c]pyridin-1-yl]piperidine] it is 100 to 500 nM.
The figure for `Cc1ccc(-n2nc(C3CCOC3)c3ccncc32)cc1` (stereo not drawn) [Compound 81, 1-(4-Methylphenyl)-3-(oxolan-3-yl)-1H-pyrazolo[3,4-c]pyridine] is 100 to 500 nM; for `Cc1ccc(-n2nc(C3CCOCC3)c3ccncc32)c(C)c1` [Compound 45, 1-(2,4-Dimethylphenyl)-3-(oxan-4-yl)-1H-pyrazolo[3,4-c]pyridine] it is 500 to 2500 nM.
As for `OCCN1CCC(c2cn(-c3ccc(Cl)cc3)c3cnccc23)CC1` [Compound 18, 2-{4-[1-(4-Chlorophenyl)-1H-pyrrolo[2,3-c]pyridin-3-yl]piperidin-1-yl}ethan-1-ol], the IC50 was in the range of 100 to 500 nM.
As for `CN(C)CC(=O)N1CCC(c2cn(-c3ccc(Cl)cc3)c3cnccc23)CC1` [Compound 14, 1-{4-[1-(4-Chlorophenyl)-1H-pyrrolo[2,3-c]pyridin-3-yl]piperidin-1-yl}-2-(dimethyl-amino)ethan-1-one], the figure is 100 to 500 nM.
The figure for `Clc1ccc(-n2nc(C3CCN(Cc4cc[nH]n4)CC3)c3ccncc32)cc1` [Compound 89, 4-[1-(4-Chlorophenyl)-1H-pyrazolo[3,4-c]pyridin-3-yl]-1-(1H-pyrazol-3-ylmethyl)piperidine] is 100 to 500 nM.
For `N#Cc1ccc(-n2nc(C3CCOCC3)c3ccncc32)cc1` [Compound 41, 4-[3-(Oxan-4-yl)-1H-pyrazolo[3,4-c]pyridin-1-yl]benzonitrile], the IC50 fell in the range of 500 to 2500 nM.
The figure for `COc1cc2c(C3CCOCC3)nn(-c3ccc(Cl)cc3)c2cn1` [Compound 96, 1-(4-Chlorophenyl)-5-methoxy-3-(oxan-4-yl)-H-pyrazolo[3,4-c]pyridine] is 500 to 2500 nM; for `OCC1CCN(Cc2cn(-c3ccc(Cl)cc3)c3cnccc23)CC1` [Compound 28, (1-{[1-(4-Chlorophenyl)-1H-pyrrolo[2,3-c]pyridin-3-yl]methyl}piperidin-4-yl)methanol] it is 100 to 500 nM; for `Fc1cncc2c1c(C1CCOCC1)nn2-c1ccc(Cl)cc1` [Compound 88, 1-(4-Chlorophenyl)-4-fluoro-3-(oxan-4-yl)-1H-pyrazolo[3,4-c]pyridine] it is 500 to 2500 nM.
As for `CC(C)(C)OC(=O)N1CCC(c2cn(-c3ccc(Cl)cc3)c3cnccc23)CC1` [Compound 9, tert-Butyl 4-[1-(4-chlorophenyl)-1H-pyrrolo[2,3-c]pyridin-3-yl]piperidine-1-carboxylate], the figure is 500 to 2500 nM; as for `Cc1ccc(-n2nc(N3CCOCC3(C)C)c3ccncc32)cc1` [Compound 65], 100 to 500 nM.
Regarding `Cc1ccc(-n2nc(C3CCOCC3)c3ccncc32)cc1` [Compound 82, 1-(4-Methylphenyl)-3-(oxan-4-yl)-1H-pyrazolo[3,4-c]pyridine], the IC50 was in the range of 100 to 500 nM.
The figure for `Clc1ccc(-c2cn(C3CCNCC3)c3ccncc23)cc1Cl` [Compound 6, 4-[3-(3,4-Dichlorophenyl)-1H-pyrrolo[3,2-c]pyridin-1-yl]piperidine hydrochloride] is 500 to 2500 nM; for `COCCN(C)c1nn(-c2ccc(C)cc2)c2cnccc12` [Compound 69, N-(2-Methoxyethyl)-N-methyl-1-(4-methylphenyl)-1H-pyrazolo[3,4-c]pyridin-3-amine] it is 100 to 500 nM; for `Cc1ccc(-n2nc(N3CCOC(C)(C)C3)c3ccncc32)cc1` [Compound 64, 2,2-Dimethyl-4-[1-(4-methylphenyl)-1H-pyrazolo[3,4-c]pyridin-3-yl]morpholine] it is below 100 nM.
On to `OC1CCN(Cc2cn(-c3ccc(Cl)cc3)c3cnccc23)CC1` [Compound 30, 1-{[1-(4-Chlorophenyl)-1H-pyrrolo[2,3-c]pyridin-3-yl]methyl}piperidin-4-ol], for which the IC50 lay within 100 to 500 nM.
For the molecule `NCCC(=O)N1CCN(c2nn(-c3ccc(Cl)cc3)c3cnccc23)CC1` [Compound 76], the IC50 lay in the range of 100 to 500 nM.
The figure for `Clc1ccc(-n2cc(C3CCOCC3)c3ccncc32)nc1` [Compound 103, 5-Chloro-2-[3-(oxan-4-yl)-1H-pyrrolo[2,3-c]pyridin-1-yl]pyridine] is 100 to 500 nM; for `Fc1ccc(-n2nc(N3CCOCC3)c3ccncc32)cc1` [Compound 55, 4-[1-(4-Fluorophenyl)-1H-pyrazolo[3,4-c]pyridin-3-yl]morpholine] it is 100 to 500 nM.
The figure for `Cc1ccc(-n2nc(C3CCC(=O)NC3)c3ccncc32)cc1` (stereo not drawn) [Compound 87, 5-[1-(4-Methylphenyl)-1H-pyrazolo[3,4-c]pyridin-3-yl]piperidin-2-one] is 100 to 500 nM; for `Cc1ccc(-n2nc(N3CCC(O)CC3)c3ccncc32)cc1` [Compound 74, 1-[1-(4-Methylphenyl)-1H-pyrazolo[3,4-c]pyridin-3-yl]piperidin-4-ol] it is below 100 nM.
The figure for `Cc1ccc(-n2nc(N3CCCOCC3)c3ccncc32)cc1` [Compound 67, 4-[1-(4-Methylphenyl)-1H-pyrazolo[3,4-c]pyridin-3-yl]-1,4-oxazepane] is below 100 nM; for `NC1CCC(c2cn(-c3ccc(Cl)cc3)c3cnccc23)CC1` (mixture of isomers) [Compound 12, 4-[1-(4-Chlorophenyl)-1H-pyrrolo[2,3-c]pyridin-3-yl]cyclohexan-1-amine hydrochloride] it is below 100 nM.
For the molecule `COC(=O)C1COCCN1c1nn(-c2ccc(C)cc2)c2cnccc12` (stereo not drawn) [Compound 66, Methyl 4-[1-(4-methylphenyl)-1H-pyrazolo[3,4-c]pyridin-3-yl]morpholine-3-carboxylate], the IC50 is below 100 nM.
`Cc1ccc(-n2c(C)c(C3=CCOCC3)c3ccncc32)cc1` [Compound 107, 3-(3,6-Dihydro-2H-pyran-4-yl)-2-methyl-1-(4-methylphenyl)-1H-pyrrolo[2,3-c]pyridine]: the IC50 is below 100 nM.
As for `Cc1ccc(-n2nc(N3CC4CCC(C3)O4)c3ccncc32)cc1` [Compound 63, 3-[1-(4-Methylphenyl)-1H-pyrazolo[3,4-c]pyridin-3-yl]-8-oxa-3-azabicyclo[3.2.1]octane], the figure is below 100 nM.
The figure for `Clc1ccc(-c2cn(CC3CCOC3)c3ccncc23)cc1` (stereo not drawn) [Compound 1, 3-(4-Chlorophenyl)-1-(oxolan-3-ylmethyl)-1H-pyrrolo[3,2-c]pyridine] is 500 to 2500 nM.
